# Test results: patent publication US20180332852A1, “Increased Almond Yields with Brassinosteroid Application” (Repar Corporation, priority 2017, published 2018)
# Tests used:
# non Pareil almond tree = assay: Experiment 2: effects of HBR on nut size and fruit set in almond trees; type: in vivo, Prunus dulcis; conditions: 1 ppm HBR sprayed two weeks after full bloom; final fruit set at harvest
# Source text: The effects of HBR on nut size and fruit set were studied in a population of 20 year old almond trees in Paine, Region 6 of Chile. The experimental design used a randomized block pattern with 10 replications of each experimental condition. Each experimental unit was a shoot of a non […] almond tree which was pollinated by bees in Solano and Carmel cultivars. Sufficient bee colonies were used for pollination of the orchard, including trees not receiving an experimental treatment. Flowers at full bloom were tallied and two weeks later the test branches were sprayed with either a control containing just water, a solution containing HBR at a rate of 1 ppm, a 10 ppm solution of HBR, or a solution of 10 ppm HBR and 10 ppm CPPU. Final fruit set on each test branch was taken at harvest. The percentage of fruit set was calculated by dividing the number of fruit per branch by the number of flowers counted before treatment and multiplying the result by 100.
# [1] = tested on: Branches of Carmel cultivars (almond); assay: Experiment 3: pollen germination, pollen tube length and fruit set after treatment during flowering; type: in vivo, Prunus dulcis; conditions: percent of flowers containing germinated pollen, versus control
# Procedure: Branches of Carmel cultivars were selected from a mature almond orchard further comprising Solando and Non […] cultivars. During flowering, the selected branches received either a brassinosteroid treatment (BL, EBL, or HBR) (FIGS. 1, 2, and 3) or a gibberellic acid (FIG. 4) treatment. Four hours after treatment the percent of flowers which contained germinated pollen was determined. Twenty-four hours after treatment the length of each pollen tube was measured. Finally, fruit set was tabulated 50 days after fertilization. Results across the brassinosteroids were similar. […] Fruit set at 50 days after flowering was greater in the BR group than either GA3 or control.
# [2] = diluted solution; pH should be no greater than 7.0, optimally between 4.0 and 5.0; cited from earlier work
structure (smiles),measurement,setting,value
"CC[C@@H](C(C)C)C(O)C(O)[C@@H](C)[C@H]1CC[C@H]2[C@@H]3COC(=O)[C@H]4C[C@H](O)[C@H](O)C[C@]4(C)[C@H]3CC[C@]12C (stereo in doubt) [HBR, homobrassinolide]",increase of fruit set over control,non Pareil almond tree,21.1%
same,pollen germination after four hours,[1],most effective treatment
same,stability at alkaline pH levels,[2],not stable
